The values below come from article PMC3705364, “Biochemical and Electrophysiological Characterization of Two Sea Anemone Type 1 Potassium Toxins from a Geographically Distant Population of Bunodosoma caissarum” (Marine Drugs, 2013).

In series [1] the target is Shaker IR (insect) (UniProt P08510).
Series [2] has as its target T1, hKV1.3 (Homo sapiens, UniProt P22001).
The target of series [3] is rKV1.1 (rat) (UniProt P10499).
The target of series [4] is rKV1.2 (rat) (UniProt P63142).
In series [5] the target is rKV1.6 (rat) (UniProt P17659).
rKV1.6 (rat), sequence (P17659 whole entry): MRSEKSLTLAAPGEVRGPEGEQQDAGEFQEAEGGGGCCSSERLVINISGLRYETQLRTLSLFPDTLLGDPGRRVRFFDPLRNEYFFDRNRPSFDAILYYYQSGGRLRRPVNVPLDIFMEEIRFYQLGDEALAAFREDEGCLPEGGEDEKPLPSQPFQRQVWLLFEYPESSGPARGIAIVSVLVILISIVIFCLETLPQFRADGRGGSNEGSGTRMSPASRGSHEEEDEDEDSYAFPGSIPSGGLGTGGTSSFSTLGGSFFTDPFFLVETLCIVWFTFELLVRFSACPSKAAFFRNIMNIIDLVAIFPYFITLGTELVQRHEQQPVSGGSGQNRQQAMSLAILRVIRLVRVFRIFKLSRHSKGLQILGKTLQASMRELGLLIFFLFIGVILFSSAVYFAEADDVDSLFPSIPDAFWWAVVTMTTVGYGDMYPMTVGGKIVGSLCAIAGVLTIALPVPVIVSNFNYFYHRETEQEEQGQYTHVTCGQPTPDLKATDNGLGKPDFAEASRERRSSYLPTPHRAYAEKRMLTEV
In series [6] the target is Shaker IR (insect) (UniProt P08510). The source holds these as a separate data set.
In series [7] the target is T1, hKV1.3. This is another data set of the same source.
The target in series [8] is rKV1.1 (rat) (UniProt P10499). This is another data set of the same source.
Series [9] has as its target rKV1.2 (rat) (UniProt P63142). The source holds these as a separate data set.
For series [10], the target named is rKV1.6 (rat) (UniProt P17659). This is another data set of the same source.
A further series deals with T2, rKV1.1 (Rattus norvegicus, UniProt P10499).
T2 construct: expressed in transfected cells; host or cells: Xenopus laevis oocytes injected with cRNA
T2 sequence (P10499 whole entry): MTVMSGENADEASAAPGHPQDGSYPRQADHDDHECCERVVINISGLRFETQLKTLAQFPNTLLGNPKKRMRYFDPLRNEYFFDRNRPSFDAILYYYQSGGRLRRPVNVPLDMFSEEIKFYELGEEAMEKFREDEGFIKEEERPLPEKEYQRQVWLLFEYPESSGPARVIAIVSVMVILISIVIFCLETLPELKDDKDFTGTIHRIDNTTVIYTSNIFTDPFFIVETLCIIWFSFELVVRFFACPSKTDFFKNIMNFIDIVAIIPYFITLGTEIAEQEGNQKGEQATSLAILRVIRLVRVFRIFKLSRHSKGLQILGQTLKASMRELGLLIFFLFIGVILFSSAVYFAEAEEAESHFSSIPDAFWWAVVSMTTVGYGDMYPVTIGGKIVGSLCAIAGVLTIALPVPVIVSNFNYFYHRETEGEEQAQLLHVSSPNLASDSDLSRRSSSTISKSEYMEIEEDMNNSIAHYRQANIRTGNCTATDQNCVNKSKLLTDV
In words: Two-electrode voltage-clamp, X. laevis oocytes expressing rKV1.1. To be noted: mean ± standard error. The series is classed as cell-based. How it is done:
(§1) Stage V–VI of X. laevis oocytes were harvested by partial ovariectomy under anesthesia (3-aminobenzoic acid ethyl ester methanesulfonate salt, 0.5 g/L from Sigma-Aldrich Co., Saint Louis, MO, USA). The oocytes were defolliculated for 2 h by treatment with 2 mg/mL collagenase (Sigma-Aldrich Co., Saint Louis, MO, USA) in Ca^2+ free ND96 solution (in mM: 96 NaCl; 2 KCl; 1 MgCl2; 5 HEPES adjusted pH 7.4). For the expression of KV channels (KV1.1–KV1.6, KV2.1, KV3.1, KV4.2, KV4.3, hERG and the insect channel Shaker IR), the linearized plasmids were transcribed using the T7 or SP6 mMessage-mMachine transcription kit (Ambion, Austin, TX, USA). Oocytes were injected with 50 nL of cRNA at a concentration of 1 ng/nL using a microinjector (Drummond Scientific, Broomall, PA, USA). The oocytes were maintained in a ND96 solution (in mM: 96 NaCl, 2 KCl, 1.8 CaCl2, 2 MgCl2 and 5 HEPES; adjusted pH 7.4), supplemented with 50 µg/mL gentamicin sulfate.
(§2) Two-electrode voltage-clamp recordings were performed at room temperature (18–22 °C) using a Geneclamp 500 amplifier (Molecular Devices, Sunnyvale, CA, USA) controlled by a pClamp data acquisition system (Axon Instruments, Union City, CA, USA). Whole-cell currents from oocytes were recorded from 1 to 3 days after injection. Bath solution was the same ND96 solution described above. Voltage and current electrodes were filled with 3 M KCl. Resistances of both electrodes were kept between 0.8 and 1.0 ΩM. The elicited currents were filtered at 500 Hz using a four-pole lowpass Bessel filter. Leak subtraction was performed using a −P/4 protocol. KV1.1–KV1.6 and Shaker IR currents were evoked by 500 ms depolarizations to 0 mV, followed by a 500 ms pulse to −50 mV, from a holding potential of −90 mV. Current traces of hERG channels were elicited by applying a +40 mV prepulse for 2 s, followed by a step to −120 mV for 2 s. KV3.1, KV 4.2 and KV4.3 currents were elicited by 500 ms pulses to +20 mV from a holding potential of −90 mV. To assess the concentration-response relationships, data were fitted with the Hill equation: y = 100/[1 + (EC50/[toxin])h] (1) where y is the amplitude of the toxin-induced effect, EC50 is the toxin concentration at half maximal efficacy, [toxin] is the toxin concentration and h is the Hill coefficient. In order to investigate the current-voltage relationship, current traces were evoked by 10 mV depolarization steps from a holding potential of −90 mV. […]
(§3) Comparison of two sample means was made using a paired Student’s t test (p < 0.05). […] All data were analyzed using Clampfit 10.3 (Molecular Devices, Sunnyvale, CA, USA) and Origin 7.5 software (Origin Lab., Northampton, MA, USA).
(In two-electrode clamp one electrode senses voltage and the other passes current.)

The target of a further series is T3, rKV1.2 (Rattus norvegicus, UniProt P63142).
T3 construct: expressed in transfected cells; host or cells: Xenopus laevis oocytes injected with cRNA
T3 sequence (P63142 whole entry): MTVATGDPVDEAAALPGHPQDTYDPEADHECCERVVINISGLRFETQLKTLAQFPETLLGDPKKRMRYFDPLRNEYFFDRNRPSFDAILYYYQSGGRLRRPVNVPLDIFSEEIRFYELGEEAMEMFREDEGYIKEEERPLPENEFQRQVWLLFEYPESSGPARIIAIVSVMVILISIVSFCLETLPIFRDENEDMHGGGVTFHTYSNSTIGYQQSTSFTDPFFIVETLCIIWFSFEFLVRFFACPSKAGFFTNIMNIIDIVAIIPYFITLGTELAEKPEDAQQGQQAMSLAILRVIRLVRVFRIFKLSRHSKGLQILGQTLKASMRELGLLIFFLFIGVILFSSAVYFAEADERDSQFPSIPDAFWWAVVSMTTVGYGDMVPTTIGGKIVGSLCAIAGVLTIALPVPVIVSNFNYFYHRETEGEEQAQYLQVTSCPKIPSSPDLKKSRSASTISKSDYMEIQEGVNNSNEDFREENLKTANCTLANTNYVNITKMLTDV
In words: Two-electrode voltage-clamp, X. laevis oocytes expressing rKV1.2. The class given is cell-based. How it is done: as §1, §2, §3

Another series has as its target T4, rKV1.6 (Rattus norvegicus, UniProt P17659).
T4 construct: expressed in transfected cells; host or cells: Xenopus laevis oocytes injected with cRNA
In words: Two-electrode voltage-clamp, X. laevis oocytes expressing rKV1.6. To be noted: mean ± standard error. The series is classed as cell-based. How it is done:
as §1, §2, §3

A further series addresses T5, Shaker IR (Drosophila melanogaster, UniProt P08510, DEL6-46).
T5 construct: expressed in transfected cells; host or cells: Xenopus laevis oocytes injected with cRNA
In words: Two-electrode voltage-clamp, X. laevis oocytes expressing Shaker IR. The class given is cell-based, insect. To be noted: mean ± standard error. How it is done:
as §1, §2, §3

Series [11] relates to KV1.1–KV1.6, KV2.1, KV3.1, KV4.2, KV4.3, hERG and Shaker IR. Description: Electrophysiological screening on 12 cloned KV channel isoforms in X. laevis oocytes. The class given is cell-based, rat, human, insect. How it is done: The pharmacological profile of BcsTx-1 and -2 were determined on a wide range of twelve KV channels (rKV1.1, rKV1.2, hKV1.3, rKV1.4, rKV1.5, rKV1.6, rKV2.1, rKV3.1, rKV4.2, rKV4.3, hERG and the insect channel Shaker IR; r: rat and h: human). Channels were expressed in X. laevis oocytes, and their currents were recorded by using two-electrode voltage-clamp technique. BcsTx1 (0.5 µM) inhibited rKv1.1, rKv1.2, rKv1.3, rKv1.6 and Shaker IR channels with 44% ± 2%, 100%, 100%, 88% ± 3% and 64% ± 4%, respectively (Figure 6). […] Type 1 toxins, such as BgK and ShK, have been extensively characterized. […] Some of the other type 1 toxins were indirectly assayed by competitive inhibition of the binding of ^125I-dendrotoxins, allowing the conclusion that they will show activity on KV1.1, KV1.2 and/or KV1.6, since dendrotoxins only block the current of these KV channels. […] Thus, it is worth mentioning that our work represents the first electrophysiological characterization of type 1 sea anemone toxin activity on cloned Shaker IR insect channel.
as §1
Two-electrode voltage-clamp recordings were performed at room temperature (18–22 °C) using a Geneclamp 500 amplifier (Molecular Devices, Sunnyvale, CA, USA) controlled by a pClamp data acquisition system (Axon Instruments, Union City, CA, USA). Whole-cell currents from oocytes were recorded from 1 to 3 days after injection. Bath solution was the same ND96 solution described above. Voltage and current electrodes were filled with 3 M KCl. Resistances of both electrodes were kept between 0.8 and 1.0 ΩM. The elicited currents were filtered at 500 Hz using a four-pole lowpass Bessel filter. Leak subtraction was performed using a −P/4 protocol. KV1.1–KV1.6 and Shaker IR currents were evoked by 500 ms depolarizations to 0 mV, followed by a 500 ms pulse to −50 mV, from a holding potential of −90 mV. Current traces of hERG channels were elicited by applying a +40 mV prepulse for 2 s, followed by a step to −120 mV for 2 s. KV3.1, KV 4.2 and KV4.3 currents were elicited by 500 ms pulses to +20 mV from a holding potential of −90 mV. To assess the concentration-response relationships, data were fitted with the Hill equation: y = 100/[1 + (EC50/[toxin])h] (1) where y is the amplitude of the toxin-induced effect, EC50 is the toxin concentration at half maximal efficacy, [toxin] is the toxin concentration and h is the Hill coefficient. In order to investigate the current-voltage relationship, current traces were evoked by 10 mV depolarization steps from a holding potential of −90 mV. The activation curves were fitted with a Boltzmann relationship of the form: 1/(1 + e^[−(V − V^1/2)/^S^]) (2) where V1/2 is the voltage for half-maximal activation and s is the slope factor. The activation kinetics were obtained by mono-exponential fits to the raw current traces.

For series [12], the target named is T1, hKV1.3. In words: Two-electrode voltage-clamp, X. laevis oocytes expressing hKV1.3. The series is classed as cell-based. Also noted: expressed in transfected cells; host or cells: Xenopus laevis oocytes injected with cRNA. How it is done: as §1, §2, §3
[13] abbreviates: TEVC, 18–22 °C, ND96 pH 7.4, 500 ms depolarizations to 0 mV from −90 mV, Hill fit, n ≥ 3.
Setting [14] is: TEVC, 18–22 °C, ND96 pH 7.4, 500 ms depolarizations to 0 mV from −90 mV, Hill fit, mean ± standard error, n ≥ 3.

Where a SMILES comes first, the peptide text is derived from it. Bridges are numbered along the chain shown (N, C = ends).

T1 sequence (P22001 whole entry): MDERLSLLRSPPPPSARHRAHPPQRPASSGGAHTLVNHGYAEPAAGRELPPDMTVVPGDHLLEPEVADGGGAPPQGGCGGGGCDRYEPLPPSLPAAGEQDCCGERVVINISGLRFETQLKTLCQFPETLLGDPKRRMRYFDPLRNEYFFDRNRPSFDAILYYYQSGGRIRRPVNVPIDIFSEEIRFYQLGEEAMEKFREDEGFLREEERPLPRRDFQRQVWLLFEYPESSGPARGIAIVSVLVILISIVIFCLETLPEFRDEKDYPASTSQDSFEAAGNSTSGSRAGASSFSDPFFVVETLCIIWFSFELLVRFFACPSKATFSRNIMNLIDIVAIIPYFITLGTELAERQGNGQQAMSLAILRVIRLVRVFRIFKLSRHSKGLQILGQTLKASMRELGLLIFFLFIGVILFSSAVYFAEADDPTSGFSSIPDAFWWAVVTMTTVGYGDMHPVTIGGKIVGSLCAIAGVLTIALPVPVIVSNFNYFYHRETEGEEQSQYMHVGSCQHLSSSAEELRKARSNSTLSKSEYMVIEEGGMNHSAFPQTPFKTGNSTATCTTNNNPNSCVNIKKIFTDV
T4 sequence (P17659 whole entry): as the sequence (P17659 whole entry) above
rKV1.2 (rat), sequence (P63142 whole entry): as the sequence (P63142 whole entry) above
Shaker IR (insect), sequence (P08510 whole entry): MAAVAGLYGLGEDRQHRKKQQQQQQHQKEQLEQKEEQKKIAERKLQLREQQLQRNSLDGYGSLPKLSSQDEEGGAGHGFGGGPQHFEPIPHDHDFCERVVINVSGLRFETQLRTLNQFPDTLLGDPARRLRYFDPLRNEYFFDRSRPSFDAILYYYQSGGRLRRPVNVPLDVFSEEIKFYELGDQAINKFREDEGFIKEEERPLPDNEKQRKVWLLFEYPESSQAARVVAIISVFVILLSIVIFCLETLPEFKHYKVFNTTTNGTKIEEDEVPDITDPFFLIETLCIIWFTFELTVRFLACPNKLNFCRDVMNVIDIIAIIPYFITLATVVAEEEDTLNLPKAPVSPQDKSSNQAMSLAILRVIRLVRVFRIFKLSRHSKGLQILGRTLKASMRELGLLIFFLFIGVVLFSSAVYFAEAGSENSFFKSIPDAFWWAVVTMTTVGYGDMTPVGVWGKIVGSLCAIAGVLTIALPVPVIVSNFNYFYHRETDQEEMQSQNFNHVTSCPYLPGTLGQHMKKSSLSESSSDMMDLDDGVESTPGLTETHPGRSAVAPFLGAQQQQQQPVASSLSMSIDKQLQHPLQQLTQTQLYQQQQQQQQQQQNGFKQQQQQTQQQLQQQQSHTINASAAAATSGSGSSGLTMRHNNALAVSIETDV
rKV1.1 (rat), sequence (P10499 whole entry): as the sequence (P10499 whole entry) above
T5 sequence (P08510 with tags, fused parts or gaps DEL6-46): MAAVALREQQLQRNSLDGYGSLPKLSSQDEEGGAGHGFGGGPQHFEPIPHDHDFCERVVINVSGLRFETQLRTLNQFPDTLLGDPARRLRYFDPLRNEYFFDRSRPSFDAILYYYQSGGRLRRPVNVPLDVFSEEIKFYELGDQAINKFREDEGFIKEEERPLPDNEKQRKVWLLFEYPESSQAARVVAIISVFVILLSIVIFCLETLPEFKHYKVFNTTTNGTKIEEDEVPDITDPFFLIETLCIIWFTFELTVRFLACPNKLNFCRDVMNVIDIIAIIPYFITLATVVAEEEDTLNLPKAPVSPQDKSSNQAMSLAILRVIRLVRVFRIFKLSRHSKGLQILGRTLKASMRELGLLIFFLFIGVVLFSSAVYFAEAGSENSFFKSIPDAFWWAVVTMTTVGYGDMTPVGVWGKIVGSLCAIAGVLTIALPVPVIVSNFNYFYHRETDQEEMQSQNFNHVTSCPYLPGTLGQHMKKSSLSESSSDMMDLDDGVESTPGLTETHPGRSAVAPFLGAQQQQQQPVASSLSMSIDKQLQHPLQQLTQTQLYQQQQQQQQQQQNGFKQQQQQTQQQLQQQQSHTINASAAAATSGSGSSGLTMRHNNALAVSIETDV

As for “BcsTx1 (from UniProt C0HJC2 1-38) (peptide)”, the IC50 of block of the channel's K+ current, two-electrode voltage clamp on X. laevis oocytes, concentration-response curve with Shaker IR (insect) [1] is 248 nM; with hKV1.3 [2], 74.1 nM; in the series with rKV1.1 (rat) [3], 405 nM; in the series with rKV1.2 (rat) [4], 0.03 nM; in the series with rKV1.6 (rat) [5], 1.31 nM. For the same compound, the percent inhibition of the channel's current by 0.5 µM BcsTx1, two-electrode voltage clamp on X. laevis oocytes turned out to be 64% with Shaker IR (insect) [6]; 100% in the series with hKV1.3 [7]; 44% with rKV1.1 (rat) [8]; 100% with rKV1.2 (rat) [9]; 88% in the series with rKV1.6 (rat) [10].

For orientation: inhibition means how much of the control response was suppressed. The IC50 is the point on the concentration scale where inhibition reaches its midpoint. Regarding `CC[C@H](C)[C@@H]1NC(=O)[C@@H](NC(=O)[C@H](C)N)CSSC[C@@H](C(=O)N[C@@H](Cc2c[nH]cn2)C(=O)O)NC(=O)[C@H](CC(C)C)NC(=O)CNC(=O)[C@@H]2CSSC[C@@H]3NC(=O)[C@H](CO)NC(=O)CNC(=O)CNC(=O)[C@H](CCCCN)NC(=O)[C@H](CCCCN)NC(=O)[C@H](C(C)C)NC(=O)[C@H](Cc4c[nH]cn4)NC(=O)[C@H](CCCCN)NC(=O)[C@H](CSSC[C@H](NC(=O)[C@H](CC(N)=O)NC(=O)[C@H]([C@@H](C)CC)NC(=O)[C@H](CCCNC(=N)N)NC(=O)[C@H](Cc4ccc(O)cc4)NC(=O)[C@H](CCCCN)NC(=O)[C@H](CCC(N)=O)NC(=O)[C@H](CO)NC(=O)[C@H](CC(N)=O)NC(=O)[C@H](CCCCN)NC3=O)C(=O)N[C@@H](C)C(=O)N[C@@H](CCCCN)C(=O)N[C@@H]([C@@H](C)O)C(=O)N2)NC(=O)[C@H]([C@@H](C)O)NC(=O)CNC(=O)[C@H]([C@@H](C)O)NC(=O)[C@@H]2CCCN2C(=O)[C@H](Cc2ccccc2)NC(=O)[C@H](CCCNC(=N)N)NC(=O)[C@H](CC(=O)O)NC1=O` [BcsTx1] (H-ACIDRFPTGTCKHVKKGGSCKNSQKYRINCAKTCGLCH-OH; disulfide 2-37, 11-30, 20-34), the inhibition at 0.5 µM was 44% on rKV1.1 (0.5 µM, n ≥ 3, read-out: inhibition of rKV1.1 current); 100% on rKV1.2 (0.5 µM, n ≥ 3, read-out: inhibition of rKV1.2 current); 88% on rKV1.6 (0.5 µM, n ≥ 3, read-out: inhibition of rKV1.6 current); 64% at Shaker IR (0.5 µM, n ≥ 3, read-out: inhibition of Shaker IR current); 100% at hKV1.3 [12] (0.5 µM, n ≥ 3, read-out: inhibition of KV1.3 current). Besides, the IC50 against rKV1.1 (setting [13]) worked out at 405 ± 20.6 nM; against rKV1.2 (setting [14]) it was 0.03 ± 0.006 nM; on rKV1.6 (setting [13]) it was 1.31 ± 0.2 nM; on Shaker IR (setting [13]) it was 248 ± 96 nM; against hKV1.3 [12] (setting [14]), 74.1 ± 20.2 nM. Moreover, the “selectivity among KV channels (in words)” value in series [11] (0.5 µM, 12 KV isoforms) is on record as “selectively blocks KV1.x channels”. Besides, in series [11] (summary of IC50 values, compared with BgK and type 2 toxins), the “potency class on KV channels (in words)” value is “within the nanomolar range”. In addition, the “affinity/potency order among KV channels (in words)” value in series [11] (summary of the electrophysiological characterization) was “high affinity for rKv1.2 over rKv1.6, hKv1.3, Shaker IR and rKv1.1”.
